Data: patent US20220408724A1, “METHOD FOR CONTROLLING METABOLISM OF BRANCHED FATTY ACID” (KAO CORPORATION, priority 2019, published 2022)

Legend:
Assay type in all cases: cell-based
Rhodotorula mucilaginosa [1] = test: Suppression of metabolism of 14-methylhexadecanoic acid on cotton fabric; details: agent 250 μg/fabric g
Experimental: (§1) A methanol solution in which 14-methylhexadecanoic acid (SIGMA-ALDRICH) was dissolved was added dropwise to 3 cm×3 cm pieces of sterilized plain-weave cotton fabric to make it adhered to the fabric. The adhesion amount of 14-methylhexadecanoic acid was set to 10 μg per piece of the plain-weave cotton fabric (100 μg/fabric g).
(§2) Further, a methanol solution in which each metabolism controlling agent was dissolved was prepared and added dropwise to the fabric to which 14-methylhexadecanoic acid adhered, and it was thereafter dried for an hour. This fabric was placed in a sterilized screw tube bottle No. 3 (Maruemu Corporation) and 100 μl of the bacterial suspension was inoculated thereto, and culture was carried out under 37° C.; conditions for 21 hours.
(§3) 3 ml of methanol was added to the screw tube bottle after culture, and extraction was carried out under ultrasonic irradiation for 30 minutes (20° C.). The extraction liquid was mixed with a (trimethylsilyl)diazomethane hexane solution (FUJIFILM Wako Pure Chemical Corporation) at 9:1 (volume ratio) and left overnight under room temperature and dark place conditions. After that, 14-methylhexadecanoic acid remaining on the fabric was quantified by GC. The quantification conditions for GC are as follows. • GC: Agilent 7890A • GC column: Agilent DB-1 30 m×250 μm×0.25 μm • Temperature rise condition: 50° C. (held for 3 minutes)-(10° C./min)-300° C. (held for 5 minutes) • Sample injection volume: 1 μl • Split ratio: 1:12 • Detector: FID
(§4) The residual amount of 14-methylhexadecanoic acid after culture on the fabric to which the metabolism controlling agent was added was quantified, and the ratio of the residual amount to that of 14-methylhexadecanoic acid in the case of adding no metabolism controlling agent (control) was calculated as a metabolism suppression rate (%). The higher a numerical value thereof is, the more the metabolism is suppressed. Note that the metabolism suppression rate was determined by the following formula:
(§5) Metabolism suppression rate(%)=[1−(100−A)/(100−B)]×100 • A: residual amount of 14-methylhexadecanoic acid of example or comparative example (μg/fabric g) • B: residual amount of 14-methylhexadecanoic acid of control (μg/fabric g)
The metabolism of 14-methylhexadecanoic acid by yeast of the genus Rhodotorula was tested in the same manner as in example 1.
In this example, Rhodotorula mucilaginosa (strain isolated from clothing) was used as a microorganism.
Further, in this example, the bacteria were precultured under conditions of a PDA agar medium (Difco), 30° C.; and 48 hours.
Further, in this example, a bacterial suspension of 10^7 (CFU/ml) prepared by using a PDB liquid medium (Difco) diluted to 1/10 with ion exchange water was used as a bacterial suspension.

Rhodotorula mucilaginosa [2] = test: Suppression of metabolite 4-methylhexanoic acid from 14-methylhexadecanoic acid; details: agent 250 μg/fabric g
Experimental: The extraction liquid was mixed with (a 1000 ppm methanol solution of) an ADAM reagent of Funakoshi Co., Ltd. at 1:1 (volume ratio) and left overnight under room temperature and dark place conditions. […] The quantification conditions are as follows. […] The higher a numerical value thereof is, the more the metabolism is suppressed. Note that the metabolite suppression rate was determined by the following formula: […] In this example, Rhodotorula mucilaginosa (strain isolated from clothing) was used as a microorganism. Further, in this example, the bacteria were precultured under conditions of a PDA agar medium (Difco), 30° C.; and 48 hours. Further, in this example, a bacterial suspension of 10^7 (CFU/ml) prepared by using a PDB liquid medium (Difco) diluted to 1/10 with ion exchange water was used as a bacterial suspension.

Micrococcus aloeverae [3] = test: Suppression of metabolism of 14-methylhexadecanoic acid on cotton fabric; details: agent 250 μg/fabric g
Experimental: as §1, §2, §3, §4, §5
(§6) The metabolism of 14-methylhexadecanoic acid by bacteria of the genus Micrococcus was tested in the same manner as in example 1.
(§7) In this example, Micrococcus aloeverae (strain isolated from clothing) was used as a microorganism.
(§8) Further, in this example, a bacterial suspension of 10^7 (CFU/ml) prepared by using an SCD liquid medium (NIHON PHARMACEUTICAL CO., LTD.) diluted to 1/10 with ion exchange water was used as a bacterial suspension.
(§9) Note that, in this example, C12OH (1-dodecanol) was used as the metabolism controlling agent.

Micrococcus aloeverae [4] = test: Suppression of metabolite 2-methylbutanoic acid from 14-methylhexadecanoic acid; details: agent 250 μg/fabric g
Experimental: (§10) After culture on fabric prepared in the same manner as in the above (1), 3 ml of methanol was added, and extraction was carried out under ultrasonic irradiation for 30 minutes (20° C.). The extraction liquid was mixed with (a 1000 ppm methanol solution of) an ADAM reagent of Funakoshi Co., Ltd. at 1:1 (volume ratio) and left overnight under room temperature and dark place conditions. After that, 4-methyl-3-hexenoic acid as a metabolite from 14-methylhexadecanoic acid was quantified by HPLC. The quantification conditions are as follows.
(§11) The production amount of 4-methyl-3-hexenoic acid after culture on the fabric to which each metabolism controlling agent was added was quantified, and the ratio of the production amount to that of 4-methyl-3-hexenoic acid in the case of adding no metabolism controlling agent (control) was calculated as a metabolite suppression rate (%). The higher a numerical value thereof is, the more the metabolism is suppressed. Note that the metabolite suppression rate was determined by the following formula:
(§12) Metabolite suppression rate(%)=100×[(D−C)/D] • C: production amount of metabolite of example or comparative example (μg/fabric g) • D: production amount of metabolite of control (μg/fabric g)
as §6, §7, §8
Further, in this example, 2-methylbutanoic acid was quantified as a metabolite from 14-methylhexadecanoic acid, and the metabolite suppression rate was determined in the same manner as in example 1.
as §9

Micrococcus aloeverae [5] = test: Measurement of viable bacterial count on fabric; details: agent 250 μg/fabric g
Experimental: (§13) After culture on fabric prepared in the same manner as in the above (1), 9 mL of an LP diluent (manufactured by NIHON PHARMACEUTICAL CO., LTD.) was added, and the extraction of the bacteria was carried out under ultrasound for 10 minutes. The extraction liquid was poured and mixed to an SCD-LP agar medium (NIHON PHARMACEUTICAL CO., LTD.), and culture was thereafter carried out at 37° C.; for a day. The number of colonies obtained on each piece of the fabric was counted, and a common logarithm value thereof was measured as the viable bacterial count. […] In addition, the […], the more the viable bacterial count of the microorganism is maintained.
as §6, §7, §8, §9

Staphylococcus aureus [6] = test: Suppression of metabolism of 14-methylhexadecanoic acid on cotton fabric; details: agent 250 μg/fabric g
Experimental: as §1, §2, §3, §4, §5
(§14) The metabolism of 14-methylhexadecanoic acid by bacteria of the genus Staphylococcus (Staphylococcus aureus) was tested in the same manner as in example 1.
(§15) In this example, Staphylococcus aureus (strain isolated from clothing) was used as a microorganism.
(§16) Further, in this example, a bacterial suspension of 10^7 (CFU/ml) prepared by using an NB liquid medium diluted to 1/10 with ion exchange water was used as a bacterial suspension.

[7] = system: Escherichia coli (NBRC3972); test: as above
Experimental: as §1, §2, §3, §4, §5
(§17) The metabolism of 14-methylhexadecanoic acid by bacteria of the genus Escherichia (Escherichia coli) was tested in the same manner as in example 1.
(§18) In this example, Escherichia coli (NBRC3972) was used as a microorganism.
(§19) Further, in this example, a bacterial suspension of 10^6 (CFU/ml) prepared by using an NB liquid medium diluted to 1/10 with ion exchange water was used as a bacterial suspension.
as §9

[8] = system: Escherichia coli (NBRC3972); test: Suppression of metabolite 4-methylhexanoic acid from 14-methylhexadecanoic acid
Experimental: as §10, §11, §12, §17, §18, §19
(§20) Further, in this example, 4-methylhexanoic acid was quantified as a metabolite from 14-methylhexadecanoic acid, and the metabolite suppression rate was determined in the same manner as in example 1.
as §9

[9] = system: Escherichia coli (NBRC3972); test: Measurement of viable bacterial count on fabric
Experimental: as §13, §17, §18, §19, §9

Staphylococcus aureus [10] = test: Measurement of viable bacterial count on fabric; details: agent 250 μg/fabric g
Experimental: as §13, §14, §15, §16, §9

Staphylococcus aureus [11] = test: Suppression of metabolite 4-methylhexanoic acid from 14-methylhexadecanoic acid; details: agent 250 μg/fabric g
Experimental: as §10, §11, §12, §14, §15, §16, §20, §9

Compound	Metabolism suppression rate (%) (Rhodotorula mucilaginosa [1])	Metabolite suppression rate (%) (Rhodotorula mucilaginosa [2])	Metabolism suppression rate (%) (Micrococcus aloeverae [3])	Metabolite suppression rate (%) (Micrococcus aloeverae [4])	Bacterial count (Log (cfu/fabric cm^2)) (Micrococcus aloeverae [5])	Metabolism suppression rate (%) (Staphylococcus aureus [6])	Metabolism suppression rate (%) ([7]; agent 500 μg/fabric g)	Metabolite suppression rate (%) ([8]; agent 500 μg/fabric g)	Bacterial count (Log (cfu/fabric cm^2)) ([9]; agent 500 μg/fabric g)	Metabolism suppression rate (%) ([7]; agent 1000 μg/fabric g)	Metabolite suppression rate (%) ([8]; agent 1000 μg/fabric g)	Bacterial count (Log (cfu/fabric cm^2)) ([9]; agent 1000 μg/fabric g)	Bacterial count (Log (cfu/fabric cm^2)) (Staphylococcus aureus [10])	Metabolite suppression rate (%) (Staphylococcus aureus [11])
CCCCCCCCCCCCOCCO [Example C12E1, ethylene glycol mono-1-dodecyl ether]	24%	41%	–	–	–	–	–	–	–	–	–	–	–	–
CCCCCCCCCCCCOCCOCCO [Example C12E2, diethylene glycol mono-1-dodecyl ether, reference compound]	–	–	−11%	8%	6.8 Log (cfu/fabric cm^2)	7%	−2%	−2%	6.5 Log (cfu/fabric cm^2)	–	–	–	–	–
CCCCCCCCCO [Example C9OH, 1-nonyl alcohol]	14%	21%	–	–	–	–	13%	31%	6.5 Log (cfu/fabric cm^2)	25%	33%	6.3 Log (cfu/fabric cm^2)	–	–
CCCCCCCCCCCCCCCCCCO [Example C18OH, 1-octadecanol, reference compound]	2%	–	−7%	1%	6.8 Log (cfu/fabric cm^2)	−1%	−15%	–	6.2 Log (cfu/fabric cm^2)	3%	0%	5.9 Log (cfu/fabric cm^2)	5.6 Log (cfu/fabric cm^2)	–
CCCCCCCCCCO [Example C10OH, 1-decanol]	51%	46%	33%	51%	7.0 Log (cfu/fabric cm^2)	16%	16%	42%	6.5 Log (cfu/fabric cm^2)	38%	75%	6.4 Log (cfu/fabric cm^2)	5.5 Log (cfu/fabric cm^2)	35%
CCCCCCCCCCCCCCO [Example C14OH, 1-tetradecanol]	14%	45%	–	–	–	42%	27%	47%	6.7 Log (cfu/fabric cm^2)	67%	77%	6.5 Log (cfu/fabric cm^2)	5.6 Log (cfu/fabric cm^2)	53%
CCCCCCCCCCCCOCCOCCOCCOCCOCCO [Example C12E5, pentaethylene glycol mono-1-dodecyl ether, reference compound]	–	–	−3%	6%	6.6 Log (cfu/fabric cm^2)	–	–	–	–	–	–	–	–	–
CCCCCCCCCCCCCCCCO [Example C16OH, 1-hexadecanol]	24%	38%	–	–	–	16%	–	–	–	18%	27%	6.6 Log (cfu/fabric cm^2)	6.1 Log (cfu/fabric cm^2)	20%
